Experimental data taken from PubChem BioAssay (NCI).
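Five compound concentrations were applied to cells in 96-well plates for 48 hours; endpoints were derived by simple linear interpolation of the resulting dose-response curve. TGI is the concentration that stops growth completely.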 Where a SMILES comes first, the peptide text is derived from it. The star is where a group is joined. Fmoc = O=C(OCC1c2ccccc2-c2ccccc21)*; Boc = CC(C)(C)OC(=O)*

How the values were obtained:
Experiment in all cases: inhibition of tumour cell growth, NCI panel, 48 h
MDA-MB-435 = system: MDA-MB-435
SK-MEL-2 melanoma = system: SK-MEL-2 melanoma
SNB-75 CNS = system: SNB-75 CNS
EKVX NSCLC = system: EKVX NSCLC
RPMI-8226 leukemia = system: RPMI-8226 leukemia
MALME-3M melanoma = system: MALME-3M melanoma
OVCAR-4 ovarian = system: OVCAR-4 ovarian
ACHN renal = system: ACHN renal
MOLT-4 leukemia = system: MOLT-4 leukemia
786-0 renal = system: 786-0 renal

Row | SMILES | TGI (MDA-MB-435) | TGI (SK-MEL-2 melanoma) | TGI (SNB-75 CNS) | TGI (EKVX NSCLC) | TGI (RPMI-8226 leukemia) | TGI (MALME-3M melanoma) | TGI (OVCAR-4 ovarian) | TGI (ACHN renal) | TGI (MOLT-4 leukemia) | TGI (786-0 renal)
1 | CC(C)C(=O)CP(=O)(O)O | > 100 µM | > 100 µM | > 100 µM | 46.1 µM | > 100 µM | > 100 µM | > 100 µM | > 100 µM | > 100 µM | > 100 µM
2 | Cc1c(C=C(C#N)C#N)c(=O)n(C)c(=O)n1C | > 100 µM | > 100 µM | > 100 µM | > 100 µM | > 100 µM | > 100 µM | > 100 µM | > 100 µM | > 100 µM | > 100 µM
3 | O[C@H]1[C@@H]2OC[C@@H](O)[C@H](OCc3ccccc3)[C@@](COCc3ccccc3)(O2)[C@@H]1OCc1ccccc1 | 32.1 µM | 29.7 µM | 18.7 µM | 30.3 µM | 31.9 µM | 28.6 µM | 24.4 µM | 30.4 µM | > 100 µM | 45.4 µM
4 | O=C(N1CCN(c2ccccc2)CC1)N(C(=O)C1(c2ccc(Cl)cc2)CCCC1)S(=O)(=O)c1ccccc1 | > 100 µM | 38.9 µM | > 100 µM | 58.2 µM | > 100 µM | 72.3 µM | 64.2 µM | 45.6 µM | 59.1 µM | > 100 µM
5 | S=c1sscc1N1CCSc2ssc(=S)c21 | > 100 µM | > 100 µM | 43.5 µM | 49.8 µM | > 100 µM | > 100 µM | 29.8 µM | > 100 µM | > 100 µM | > 100 µM
6 | COC(=O)c1c(OC(C)=O)ccc2c1c1cc3ccccc3c(OC(C)=O)c1n2C | > 100 µM | > 100 µM | 36 µM | > 100 µM | > 100 µM | 56.2 µM | > 100 µM | 89.4 µM | > 100 µM | 43.2 µM
7 | CCCCn1c2c(n(CCCC)c1=[Se])-c1c(n(CCCC)c(=[Se])n1CCCC)S[Se][Se]S2 | > 100 µM | 45.9 µM | 44.7 µM | > 100 µM | > 70 µM | 15.4 µM | 25.8 µM | 30.9 µM | > 90.6 µM | > 72.6 µM
8 | O=c1ccc2nc3ccc(O)cc3oc-2c1 | 3.23 µM | 57.7 µM | 22 µM | > 100 µM | 30.8 µM | 8.76 µM | > 100 µM | > 100 µM | > 100 µM | > 79.6 µM
9 | COc1ccc(NC(C)=O)cc1N1C(=O)/C(=C\c2cccc(Oc3ccccc3)c2)SC1c1ccccc1 (stereo not given) | > 100 µM | > 100 µM | > 100 µM | > 100 µM | 61.9 µM | > 100 µM | > 100 µM | > 100 µM | 82.6 µM | > 100 µM
10 | CCOC(=O)c1c[nH]c2cc3c(cc2c1=O)CCS3 | > 100 µM | > 100 µM | > 100 µM | > 100 µM | > 100 µM | > 100 µM | > 100 µM | > 100 µM | > 100 µM | > 100 µM
11 | Fc1ccc(C(OCCN2CCC3CCC(C2)N3C/C=C/c2cccnc2)c2ccc(F)cc2)cc1 (stereo not given) | 24.3 µM | 26.5 µM | 27.9 µM | 25 µM | 5.8 µM | 15 µM | 30.2 µM | 27.3 µM | 14.9 µM | 17.8 µM
12 | Nc1c(O)c(C(=O)O)cc2ccccc12 | 33.4 µM | 35 µM | 53.5 µM | > 100 µM | 95.7 µM | 29.6 µM | 48.9 µM | 64.3 µM | 83.8 µM | 36.4 µM
13 | Cc1cc(C)nc(NS(=O)(=O)c2ccc(NC(=O)c3ccc4nc5ccccc5c(Nc5ccc(S(=O)(=O)Nc6nc(C)cc(C)n6)cc5)c4c3)cc2)n1 | > 100 µM | > 100 µM | > 100 µM | > 100 µM | > 100 µM | > 100 µM | > 100 µM | > 100 µM | 78.1 µM | > 100 µM
14 | Cc1ccc2c(c1)C/C(=C\c1ccccc1C(=O)O)C2=O | > 100 µM | > 100 µM | > 100 µM | > 100 µM | > 100 µM | > 100 µM | > 100 µM | > 100 µM | > 100 µM | > 100 µM
15 | CC(=O)NC1=CC(=O)C=C(Cl)C1=O | 32.2 µM | > 100 µM | > 100 µM | > 100 µM | 52.1 µM | 66 µM | 37.7 µM | > 100 µM | 50.9 µM | > 100 µM
16 | CC(=O)Nc1ccc2c3c(cc(O)c2c1)N(C(=O)CCCCCC(=O)Nc1ccc2c4c(cc(O)c2c1)N(C(=O)OC(C)(C)C)CC4CCl)CC3CCl (stereo not given) | 3.29 µM | 4.02 µM | 5.22 µM | > 100 µM | > 34.6 µM | 8.98 µM | > 63.6 µM | > 100 µM | > 32.6 µM | 10.1 µM
17 | C[C@]12CC[C@H]3[C@@H](CCC4=CC(=O)CC[C@@]43C)[C@@H]1CC[C@@H]2OC(=O)c1cccc2c(=O)c3ccccc3[nH]c12 | > 100 µM | > 100 µM | > 100 µM | > 100 µM | 87.7 µM | > 100 µM | > 100 µM | > 100 µM | 89.2 µM | 38.6 µM
18 | Cc1ccc2nnc(NS(=O)(=O)c3cc(C)c(Cl)cc3S)n2n1 | > 100 µM | > 100 µM | > 100 µM | > 100 µM | > 100 µM | > 100 µM | > 100 µM | > 100 µM | > 100 µM | > 100 µM
19 | Cc1cn(C2CC(O)C(Cn3nncc3Cn3ccc(=O)[nH]c3=O)O2)c(=O)[nH]c1=O (stereo not given) | > 100 µM | > 100 µM | > 100 µM | > 100 µM | > 100 µM | > 100 µM | > 100 µM | > 100 µM | > 100 µM | > 100 µM
20 | COc1cc(C2S/C(=C/c3ccccc3)C(=O)N2c2ccccn2)cc(OC)c1OC (stereo not given) | 29.3 µM | > 71.3 µM | 39.7 µM | 76.1 µM | 73.3 µM | 27.5 µM | 63.2 µM | 29.8 µM | > 100 µM | 31.4 µM
21 | O=c1c2cc([N+](=O)[O-])cnc2sn1-c1ccc(Br)cc1 | > 100 µM | 85.5 µM | > 100 µM | > 100 µM | > 100 µM | 57 µM | 82 µM | > 100 µM | 90.3 µM | > 100 µM
22 | CCOC(=O)/C=C1\C[C@H](NC(=O)OCc2ccccc2)C(=O)N1CC(=O)OCC | > 100 µM | > 100 µM | > 100 µM | > 100 µM | > 100 µM | > 100 µM | > 100 µM | > 100 µM | > 100 µM | > 100 µM
23 | NNC(=O)CSc1nnc(CCCCCCCCc2nnc(SCC(=O)NN)o2)o1 | > 100 µM | > 100 µM | > 100 µM | > 100 µM | > 100 µM | > 100 µM | > 100 µM | > 100 µM | > 100 µM | > 100 µM
24 | Cn1c2c(c3c(=O)[nH]ncc31)CCCc1ccccc1-2 | 50.4 µM | 40.2 µM | > 100 µM | > 100 µM | 40.2 µM | 60.7 µM | > 100 µM | 98.9 µM | 21.6 µM | > 100 µM
25 | N#C/C=C\c1ccc(-c2cc(C(F)(F)F)cc(C(F)(F)F)c2)o1 | 18.5 µM | 41 µM | 39.8 µM | > 100 µM | > 100 µM | > 100 µM | > 100 µM | > 100 µM | > 100 µM | 70.5 µM
26 | C=[N+](CNC(=O)CNC(=O)C(Cc1ccccc1)NC(=O)OC(C)(C)C)C(=O)CNC(=O)C(Cc1ccccc1)NC(=O)OC(C)(C)C (stereo not given) | > 100 µM | > 100 µM | > 100 µM | > 100 µM | > 100 µM | > 100 µM | > 100 µM | > 100 µM | > 100 µM | > 100 µM
27 | CC(C)(C)OC(=O)NCCCCC(NC(=O)C(Cc1c[nH]c2ccccc12)NC(=O)OCC1c2ccccc2-c2ccccc21)C(=O)O (stereo not given) (Fmoc-Trp-Lys(Boc)-OH; configuration not given here) | > 100 µM | 54.9 µM | > 100 µM | > 100 µM | 67 µM | > 100 µM | > 100 µM | > 100 µM | 48.2 µM | > 100 µM
28 | COc1cc(C2SC(N)=Nc3c2c(C)nn3C(=O)c2ccc(Cl)cc2)ccc1O (stereo not given) | > 10 µM | > 10 µM | > 10 µM | > 10 µM | > 10 µM | > 10 µM | > 10 µM | > 10 µM | > 10 µM | > 10 µM
29 | COc1ccc(/C=C2\CC3C4CC=C5C[C@@H](O)CC[C@]5(C)C4CC[C@]3(C)C2=O)cc1OC (stereo not given in full) | > 100 µM | > 100 µM | > 100 µM | > 100 µM | 36.2 µM | > 100 µM | > 100 µM | > 100 µM | 83.4 µM | > 100 µM
30 | CCOC(=O)c1c(CN2CCOCC2)n(Cc2ccccc2)c2c1cc(O)c1nc(C)c(C)nc12 | > 100 µM | 44.5 µM | 32.7 µM | > 100 µM | > 100 µM | > 100 µM | > 100 µM | > 100 µM | > 100 µM | 68.7 µM
